Test results published in patent US12325726B2, “Organic compounds” (priority 2018, dated 2025).
Read-outs that look alike come from different tables or passages of the source.

Columns and labels:
human hepatocyte = experiment: In vitro human hepatocyte stability assay; type: in vitro ADME; details: human hepatocytes
Procedure: The compounds of Examples 1, 2, 5 and 6 are compared in a standard in vitro human hepatocyte stability assay run in duplicate. Compounds are provided as 1 M solutions in DMSO, and concentration of test compound is determined at 0.5, 1.0 and 4.0 hours after addition of the test compound. Results are shown below as a percentage of initial concentration.

[1] = In vivo mouse pharmacokinetics, paired oral co-dosing, plasma and brain; parameters: species or system mice; details: for Cmax / Tmax / AUC / concentration at 0.25 hr / concentration at 0.5 hr / concentration at 1 hr / concentration at 2 hr / concentration at 4 hr / concentration at 6 hr / Kp: 10 mg/kg po co-dosed; for AUC: 0.25-6 hr sampling; for Kp: brain/plasma, read-out: B/P AUC Ratio
Procedure: In a first study, the compounds of Examples 2 to 6 are compared to the Compound of Formula A (Example 1) using standard procedures in mice. In each test, two compounds are co-dosed in a single animal and the relative pharmacokinetics in plasma and brain is determined. Each test compound is dissolved in polyethylene glycol 400 vehicle, and administered orally at a dose of 10 mg/kg. After single dose oral administration of the test compounds together, plasma and brain levels are measured at 0.25, 0.5, 1, 2, 4, and 6 hours post-dosing. The mean values for maximum concentration, time to maximum concentration, and Area Under the Curve (AUC) for both compounds are determined. The results are summarized in the tables below for various paired co-dosing experiments: […]

[2] = brain, read-out: Brain concentration
[3] = plasma, read-out: Plasma concentration

| SMILES | percentage of initial concentration (human hepatocyte; 0 hr) | Cmax ([1]; brain) | Tmax ([1]; brain) | AUC ([1]; brain) | concentration at 0.25 hr [1, 2] | concentration at 0.5 hr [1, 2] | concentration at 1 hr [1, 2] | concentration at 2 hr [1, 2] | concentration at 4 hr [1, 2] | concentration at 6 hr [1, 2] | Kp [1] | Cmax ([1]; plasma) | Tmax ([1]; plasma) | AUC ([1]; plasma) | concentration at 0.25 hr [1, 3] | concentration at 0.5 hr [1, 3] | concentration at 1 hr [1, 3] | concentration at 2 hr [1, 3] | concentration at 4 hr [1, 3] | concentration at 6 hr [1, 3] | other results |
| --- | --- | --- | --- | --- | --- | --- | --- | --- | --- | --- | --- | --- | --- | --- | --- | --- | --- | --- | --- | --- | --- |
| [2H]c1nc([2H])n(CC(=O)[C@H]2CC[C@H]3[C@@H]4CC[C@H]5C[C@@](O)(COC)CC[C@]5(C)[C@H]4CC[C@]23C)c1[2H] [Example 2, 1-((3R,5S,8R,9S,10S,13S,14S,17S)-3-hydroxy-3-(methoxymethyl)-10,13-dimethylhexadecahydro-1H-cyclopenta[a]phenanthren-17-yl)-2-(1H-imidazol-1-yl-d3)ethan-1-one] | 100% | 7600 ng/g | 1 h | 29000 ng·h/mL | 1840 ng/g | 5590 ng/g | 7600 ng/g | 6340 ng/g | 4890 ng/g | 1410 ng/g | 2.8 | 2550 ng/mL | 1 h | 10300 ng·h/mL | 1180 ng/mL | 1740 ng/mL | 2550 ng/mL | 2120 ng/mL | 1760 ng/mL | 774 ng/mL | percentage of initial concentration (human hepatocyte; 0.5 hr): 105%; percentage of initial concentration (human hepatocyte; 1.0 hr): 107%; percentage of initial concentration (human hepatocyte; 4.0 hr): 92%; brain exposure of drug compared to the non-deuterated compound of Example 1 ([1]; 10 mg/kg po): much higher; brain/plasma AUC ratio compared to Example 1 ([1]; 10 mg/kg po): much higher |
| [2H]C([2H])([2H])OC[C@@]1(O)CC[C@@]2(C)[C@@H](CC[C@@H]3[C@@H]2CC[C@]2(C)[C@@H](C(=O)Cn4ccnc4)CC[C@@H]32)C1 [Example 3, 1-((3R,5S,8R,9S,10S,13S,14S,17S)-3-hydroxy-3-((methoxy-d3)methyl)-10,13-dimethylhexadecahydro-1H-cyclopenta[a]phenanthren-17-yl)-2-(1H-imidazol-1-yl)ethan-1-one] |  | 2620 ng/g | 1 h | 13200 ng·h/mL | 2200 ng/g | 2000 ng/g | 2620 ng/g | 2370 ng/g | 2200 ng/g | 1980 ng/g | 1.2 | 2420 ng/mL | 1 h | 11300 ng·h/mL | 2170 ng/mL | 1570 ng/mL | 2420 ng/mL | 2020 ng/mL | 1810 ng/mL | 1720 ng/mL | plasma and brain AUC values and B/P ratio compared to Example 1 ([1]; 10 mg/kg po): similar |
| [2H]c1nc([2H])n(CC(=O)[C@H]2CC[C@H]3[C@@H]4CC[C@H]5C[C@@](O)(COC([2H])([2H])[2H])CC[C@]5(C)[C@H]4CC[C@]23C)c1[2H] [Example 4, 1-((3R,5S,8R,9S,10S,13S,14S,17S)-3-hydroxy-3-((methoxy-d3)methyl)-10,13-dimethylhexadecahydro-1H-cyclopenta[a]phenanthren-17-yl)-2-(1H-imidazol-1-yl-d3)ethan-1-one] |  | 6530 ng/g | 1 h | 25000 ng·h/mL | 1710 ng/g | 5070 ng/g | 6530 ng/g | 5480 ng/g | 4200 ng/g | 1180 ng/g | 2.7 | 2520 ng/mL | 1 h | 9220 ng·h/mL | 896 ng/mL | 1490 ng/mL | 2520 ng/mL | 1950 ng/mL | 1600 ng/mL | 423 ng/mL | brain exposure of drug compared to the non-deuterated compound of Example 1 ([1]; 10 mg/kg po): much higher; brain/plasma AUC ratio compared to Example 1 ([1]; 10 mg/kg po): much higher |
| [2H]C(C(=O)[C@@]1([2H])CC[C@H]2[C@@H]3CC[C@H]4C[C@@](O)(COC([2H])([2H])[2H])CC[C@]4(C)[C@H]3CC[C@@]21C)n1ccnc1 (stereo partly drawn) [Example 5, 1-((3R,5S,8R,9S,10S,13S,14S,17S)-3-hydroxy-3-((methoxy-d3)methyl)-10,13-dimethylhexadecahydro-1H-cyclopenta[a]phenanthren-17-yl-17-d)-2-(1H-imidazol-1-yl)ethan-1-one-2-d] | 100% | 5700 ng/g | 1 h | 23500 ng·h/mL | 3450 ng/g | 5540 ng/g | 5700 ng/g | 5100 ng/g | 3180 ng/g | 2240 ng/g | 2.6 | 2300 ng/mL | 1 h | 8900 ng·h/mL | 1490 ng/mL | 1960 ng/mL | 2300 ng/mL | 1770 ng/mL | 1340 ng/mL | 725 ng/mL | percentage of initial concentration (human hepatocyte; 0.5 hr): 83%; percentage of initial concentration (human hepatocyte; 1.0 hr): 80%; percentage of initial concentration (human hepatocyte; 4.0 hr): 52% |
| [2H]c1nc([2H])n(C([2H])C(=O)[C@@]2([2H])CC[C@H]3[C@@H]4CC[C@H]5C[C@@](O)(COC([2H])([2H])[2H])CC[C@]5(C)[C@H]4CC[C@@]32C)c1[2H] (stereo partly drawn) [Example 6, 1-((3R,5S,8R,9S,10S,13S,14S,17S)-3-hydroxy-3-((methoxy-d3)methyl)-10,13-dimethylhexadecahydro-1H-cyclopenta[a]phenanthren-17-yl-17-d)-2-(1H-imidazol-1-yl-d3)ethan-1-one-2-d] | 100% | 5350 ng/g | 1 h | 22400 ng·h/mL | 3300 ng/g | 5350 ng/g | 5300 ng/g | 4880 ng/g | 3060 ng/g | 2110 ng/g | 2.7 | 2120 ng/mL | 1 h | 8200 ng·h/mL | 1410 ng/mL | 1850 ng/mL | 2120 ng/mL | 1650 ng/mL | 1220 ng/mL | 642 ng/mL | percentage of initial concentration (human hepatocyte; 0.5 hr): 83%; percentage of initial concentration (human hepatocyte; 1.0 hr): 69%; percentage of initial concentration (human hepatocyte; 4.0 hr): 45%; brain exposure of drug compared to the non-deuterated compound of Example 1 ([1]; 10 mg/kg po): much higher; brain/plasma AUC ratio compared to Example 1 ([1]; 10 mg/kg po): much higher |
